The values below are quoted from earlier work in patent US20070265345A1, “Novel Biphenyl Compounds And Their Use” (SMITHKLINE BEECHAM CORPORATION, priority 2004, published 2007).

In the data set the test system is A549 cells.
`COc1cccc2c1C(=O)c1c(O)c3c(c(O)c1C2=O)C[C@@](O)(C(=O)CO)C[C@@H]3O[C@H]1C[C@H](N)[C@H](O)[C@H](C)O1` [doxorubicin]: the GI50 (as a rule, the concentration at which growth is held to half of that of the control) is 63 nM.
Consider `CC(=O)O[C@H]1C(=O)[C@@]2(C)[C@H]([C@H](OC(=O)c3ccccc3)[C@]3(O)C[C@H](OC(=O)[C@H](O)[C@@H](NC(=O)c4ccccc4)c4ccccc4)C(C)=C1C3(C)C)[C@]1(OC(C)=O)CO[C@@H]1C[C@@H]2O` [paclitaxel], for which the GI50 was 4 nM.
`O=c1[nH]cc(F)c(=O)[nH]1` [5-fluorouracil]: the 50% growth inhibitory concentration (GI50) was 1000 nM.
As to `NC(=O)NO` [hydroxyurea], the GI50 was 500000 nM.
